Test results taken from patent US20110030077A1, “METHODS OF MODULATING THE ORGANIC SOLUTE AND STEROID TRANSPORTER (OSTalpha-OSTbeta) ACTIVITY AND TREATING ASSOCIATED CONDITIONS” (UNIVERSITY OF ROCHESTER, priority 2009, published 2011).
Blank lines part the entries; values can stand above or below the compound they belong to.

Experiments:
Ostα-YN (mouse) = test: cell-based or functional assay
[1] = intraileal injection
Experimental: [^3H]Estrone 3-sulfate, 0.005 μmol/100 μl, was injected directly into the ileal lumen of Ostα^+/+ and Ostα^−/− male (FIG. 18C) and female (FIG. 18D) mice. Tissues were collected for analysis of radioactivity after 30 min.
Mice that had been fed ad libitum were anesthetized by intraperitoneal administration of pentobarbital sodium (50 mg/kg) and additional anesthetic was administered as required for the duration of the experiment. […] At the end of the experiments, 150-300 μl of blood was collected from the abdominal aorta in a tared 1 ml syringe containing 50 μl of heparin (1000 U/ml). The small intestine was removed and segmented into 3 parts, where the first third after the stomach comprised the duodenum, the middle third the jejunum, and the section before the ileo-ceco-colic junction comprised the ileum. Colon, liver, gallbladder, kidney and the urinary bladder were also removed and weighed. The contents of the small intestine, colon, gallbladder and urinary bladder were included in the analysis. For the liver, approximately 0.2-0.4 g of tissue was taken for analysis of radioisotope content. Tissue and blood samples were placed in tared 20-ml glass vials, and Solvable (Perkin-Elmer, Life and Analytical Sciences, Boston, Mass.) was added to each vial (1.0 ml/0.1 g tissue or 2.0 ml/1.0 ml blood), which was then heated to 60° C. for 2 to 3 h. The vials were allowed to cool to room temperature, and 0.1 ml of 0.1 M EDTA/1.0 ml of Solvable was added to each vial of blood. H2O2 (30%) was then added in 0.1-ml aliquots (0.3 ml/1.0 ml Solvable for blood or 0.1 ml/1.0 ml Solvable for tissues). After standing at room temperature for 15 to 30 min, the vials were capped tightly and heated to 60° C. for 1 h and allowed to cool back to room temperature. After the addition of scintillation fluid (4 ml of Opti-Fluor to 200 μl of each sample) (Perkin-Elmer, Life and Analytical Sciences, Boston, Mass.), the samples were allowed to stand for at least 2 h at room temperature before counting. Samples were counted in a Beckman LS 6500 scintillation counter (Beckman Coulter, Fullerton, Calif.). […]

Sequence of Ostα-YN (mouse) (Q8R000 whole entry): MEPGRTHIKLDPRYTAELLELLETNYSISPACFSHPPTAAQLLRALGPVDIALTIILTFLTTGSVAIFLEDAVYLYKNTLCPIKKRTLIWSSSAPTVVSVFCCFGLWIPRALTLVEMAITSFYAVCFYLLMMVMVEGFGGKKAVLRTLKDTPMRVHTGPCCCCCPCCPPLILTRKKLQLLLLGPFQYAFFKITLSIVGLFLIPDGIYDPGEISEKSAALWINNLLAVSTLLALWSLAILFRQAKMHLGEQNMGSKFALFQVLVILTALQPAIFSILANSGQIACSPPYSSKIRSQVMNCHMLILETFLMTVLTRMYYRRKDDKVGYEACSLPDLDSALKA

[3H]taurocholate transport in cells co-transfected with Ostα-YN and Ostβ-YC (Ostα-YN (mouse)): 30%
Compound: Ostβ29-53-YC (peptide)

Compound: C[C@H](CCC(=O)NCCS(=O)(=O)O)[C@H]1CC[C@H]2[C@@H]3[C@H](O)C[C@@H]4C[C@H](O)CC[C@]4(C)[C@H]3C[C@H](O)[C@]12C [taurocholate, taurocholic acid]
absorption from the ileum ([1]; wild type mice, 15 min): > 90%

fraction absorbed from the ileum ([1]; Ostα−/− mice, 30 min): 20-30%
removed from the ileum ([1]; wild type mice, 30 min): 60-70%
Compound: estrone 3-sulfate [estrone sulfate]
